From patent publication US12298319B2, “Method for measuring alpha value of muscarinic M1 receptor positive allosteric modulators” (Takeda Pharmaceutical Company Limited, priority 2017, dated 2025) come the findings set out here.

For one data set, the target named is T1, M2R (Homo sapiens, UniProt P08172).
T1 sequence (P08172 1-466): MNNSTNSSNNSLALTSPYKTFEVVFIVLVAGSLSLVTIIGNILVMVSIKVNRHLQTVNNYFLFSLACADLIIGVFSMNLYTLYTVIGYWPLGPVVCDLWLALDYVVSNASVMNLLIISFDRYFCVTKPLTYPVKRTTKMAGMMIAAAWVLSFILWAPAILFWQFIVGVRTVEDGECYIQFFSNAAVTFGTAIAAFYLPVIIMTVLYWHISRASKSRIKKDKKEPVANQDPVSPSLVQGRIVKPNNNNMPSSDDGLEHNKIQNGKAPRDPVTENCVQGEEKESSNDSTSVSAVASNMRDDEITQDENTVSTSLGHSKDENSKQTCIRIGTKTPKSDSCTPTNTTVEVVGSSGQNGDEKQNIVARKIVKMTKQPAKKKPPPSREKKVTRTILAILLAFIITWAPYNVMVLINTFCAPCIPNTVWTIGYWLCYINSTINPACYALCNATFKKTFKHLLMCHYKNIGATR
Briefly: Ca2+ flux assay in CHO-K1 cells expressing human M2R. The data set is classed as cell-based. On the set-up: expressed in transfected cells; host or cells: CHO-K1. The following applies: read-out: IP for M2R.

Another data set relates to rats. Briefly: Assessment of cholinergic side effects in rats. The following applies: SD, rat, in vivo, po, 240 min. The method, then:
SD Rats were placed individually into observation cages and acclimated for at least 1 h. […] The severity of diarrhea was scored as follows: 0, normal pellets; 1, wet but formed feces; 2, swollen or mucous feces; 3, severe watery diarrhea. For diarrhea, the number of rats and mice, in which more than or equal to 2 was scored, was counted. For fasciculation, the number of rats with marked fasciculation of both the upper and lower limbs was counted. For lacrimation, the number of rats, in which moderate to marked discharge (severer lacrimation than fluid around eyes) was induced, was counted. For salivation, the number of rats with severe salivation, but not just noticeably wet around mouth, was induced was counted. The maximum score during the observation was adopted.
For diarrhea, the number of rats scored more than or equal to 2 was counted. For fasciculation, the number of rats with marked fasciculation of both the upper and lower limbs was counted. For lacrimation, the number of rats in which moderate to marked discharge (severer lacrimation than fluid around eyes) was counted. For salivation, the number of rats with severe salivation, but not just noticeably wet around mouth, was counted. The maximum score during the observation was adopted. Data were presented as the number of incidence per total rats.
For diarrhea, the number of rats in which loose or mucous stool, or diarrhea was induced was counted. For fasciculation, the number of rats with marked fasciculation of both the upper and lower limbs was counted. For lacrimation, the number of rats in which moderate to marked discharge (severe lacrimation than fluid around eyes) was caused was counted. For salivation, the number of rats with severe salivation, but not just noticeably wet around mouth was counted. The maximum score during the observation was adopted. Data were presented as the number of incidence per total rats.

For the next data set, the system named is isolated mouse ileum. The experiment in a line: In vitro Magnus method, spontaneous ileum motility. The following applies: cumulative concentrations. The method, then: After overnight fasting, mice were sacrificed. The ileum was quickly dissected out and suspended in ice-cold Krebs solution with the following composition (in mM): NaCl, 120.7; KCl, 5.9; CaCl2, 2.5; MgCl2, 1.2; NaHCO3, 15.5; NaH2PO4, 1.2; and glucose, 11.5. Longitudinal segments of ileum (10-15 mm long) were detached of mesentery and adipose tissue, and mounted in organ baths containing 10 mL of Krebs solution aerated with 95% O2/5% CO2. Bath temperature was maintained at 37° C. The isolated ileum was given a passive load of 0.5 g. The contractile response of the isolated ileum was continuously recorded with isometric transducer (MLT050/A, ADInstruments, New South Wales, Australia) and recorder (PowerLab 8/30 ML870 and Octal Bridge Amp ML228, ADInstruments). […]
The contraction was measured as the maximum strength from the baseline. The effects of experimental substances on the maximum contraction were measured. […] The effect of each concentration of the compounds on ileum spontaneous contraction induced was calculated from the average value of 6 responses of the maximum strength. Then the ileum contractile response was expressed as a ratio of the mean maximum contraction to that obtained with the pre-treated DMSO (solvent). […] Due to very small size of relaxations, the effects of the compounds on them was not be analyzed.

Data set [1] in a line: Plasma and brain concentration in samples of in vivo IP1 assay. The following applies: for concentration at 3 h: mouse, oral, mean±SD. On the set-up: species or system mouse. The method, then:
Plasma and brain concentration of Compound D in sample of in vivo IP1 assay at 3 h after oral treatment. Results represent the mean±SD. n=10 per group.
Plasma and brain concentration of Compound C in sample of in vivo IP1 assay at 3 h after oral treatment. Results represent the mean±SD. n=10 per group.

Data set [2] can be described thus: Pharmacokinetics after oral administration to mice. The format is in vivo, mouse. The following applies: for Cmax / Tmax / AUC(0-t): mouse, plasma, po; for AUC(0-t): read-out: AUC0-4 h. As for the experimental part:
Plasma concentration of Compound B at 30 and 1000 mg/kg. Plasma samples were collected at 0.5, 1, 2, 4 and 6 h after oral treatment. Results represent the mean. n=3 per group.

SMILES strings stand for the structures. Read-outs that look alike come from different tables or passages of the source.

In the case of `Cn1cc(-c2ccc(Cc3cc4c(=O)n([C@H]5CCCC[C@@H]5O)cnc4c4ccccc34)cn2)cn1` [Compound C, 3-((1S,2S)-2-hydroxycyclohexyl)-6-((6-(1-methyl-1H-pyrazol-4-yl)pyridin-3-yl)methyl)benzo[h]quinazoline-4(3H)-one, reference compound], the EC50 on M2R was greater than 1 µM. The Diarrhea in the data set with rats (0.01 mg/kg) is 0/6 (0%); in the data set with rats (0.03 mg/kg), 0/6 (0%); in the data set with rats (0.1 mg/kg), 3/6 (50%); with rats (0.3 mg/kg) it was 4/6 (67%). In addition, the Fasciculation with rats (0.01 mg/kg), in the data set with rats (0.03 mg/kg), in the data set on rats (0.1 mg/kg) and in the data set on rats (0.3 mg/kg) was 0/6 (0%) throughout. Moreover, the Lacrimation with rats (0.01 mg/kg), in the data set with rats (0.03 mg/kg), in the data set on rats (0.1 mg/kg) and in the data set on rats (0.3 mg/kg) was 0/6 (0%) throughout. The Myosis with rats (0.01 mg/kg), in the data set with rats (0.03 mg/kg), in the data set with rats (0.1 mg/kg) and in the data set with rats (0.3 mg/kg) was 0/6 (0%) throughout. Also, the Salivation in the data set with rats (0.01 mg/kg), in the data set with rats (0.03 mg/kg), in the data set on rats (0.1 mg/kg) and in the data set with rats (0.3 mg/kg) was 0/6 (0%) in each case. In the data set with rats, the “minimal diarrhea inducing dose in rats” value is listed as 0.1 mg/kg. The spontaneous ileum motility result with isolated mouse ileum is given as “strengthened the spontaneous ileum motility in a concentration-dependent manner”. In addition, the “differences in brain concentration between wild-type and M1R KO mice” value in data set [1] (10 mg/kg p.o.) is on record as “No significant differences”. Moreover, the concentration at 3 h in data set [1] (brain, 10 mg/kg, 10 mg/kg p.o., M1KO mice, read-out: Brain concentration) came out at 62.7 ± 9.1 ng/g; in data set [1] (brain, 10 mg/kg, 10 mg/kg p.o., wild-type mice, read-out: Brain concentration) it was 63.7 ± 16.8 ng/g; in data set [1] (plasma, 10 mg/kg, 10 mg/kg p.o., M1KO mice, read-out: Plasma concentration) it was 6130 ± 1160 ng/mL; in data set [1] (plasma, 10 mg/kg, 10 mg/kg p.o., wild-type mice, read-out: Plasma concentration) it was 2340 ± 628 ng/mL.
As for `Cn1cc(-c2ccc(CN3Cc4cccc(Oc5c(F)cccc5C#N)c4C3=O)cc2)cn1` [Compound B, 3-fluoro-2-((2-(4-(1-methyl-1H-pyrazol-4-yl)benzyl)-3-oxo-2,3-dihydro-1H-isoindol-4-yl)oxy)benzonitrile], in data set [2] (30 mg/kg p.o.), the Cmax was found to be 270 ng/mL, the time to peak (Tmax) worked out at 2 h and the AUC(0-t) was determined as 800 ng·h/mL. Further, in data set [2] (1000 mg/kg p.o.), the peak level (Cmax) was 970 ng/mL, the time to peak (Tmax) stood at 1.7 h and the AUC(0-t) is 3020 ng·h/mL. For the same compound, in data set [2] (p.o.), the “plasma concentration at 1000 mg/kg relative to 30 mg/kg” value came out at 3.6 fold.
For the compound `Cc1c(Cc2ccc(-n3cccn3)cc2)cc2c(c1F)CN([C@H]1COCC[C@@H]1O)C2=O` [Compound D, 4-fluoro-2-[(3S,4S)-4-hydroxytetrahydro-2H-pyran-3-yl]-5-methyl-6-[4-(1H-pyrazol-1-yl)benzyl]-2,3-dihydro-1H-isoindol-1-one], the EC50 on M2R is greater than 10 µM. For the same compound, the Diarrhea with rats (1 mg/kg) is given as 0/6 (0%); in the data set on rats (3 mg/kg) it was 1/6 (17%); in the data set with rats (10 mg/kg), 5/6 (83%); in the data set on rats (30 mg/kg) it was 4/6 (67%). Also, the Fasciculation in the data set on rats (1 mg/kg), in the data set with rats (3 mg/kg), in the data set with rats (10 mg/kg) and with rats (30 mg/kg) was 0/6 (0%) in each case. Besides, the Lacrimation with rats (1 mg/kg), with rats (3 mg/kg), with rats (10 mg/kg) and in the data set on rats (30 mg/kg) was 0/6 (0%) each time. For the same compound, the Myosis in the data set with rats (1 mg/kg), in the data set with rats (3 mg/kg), in the data set with rats (10 mg/kg) and in the data set with rats (30 mg/kg) was 0/6 (0%) throughout. Also, the Salivation with rats (1 mg/kg), with rats (3 mg/kg), in the data set on rats (10 mg/kg) and in the data set on rats (30 mg/kg) was 0/6 (0%) throughout. The “minimal diarrhea inducing dose in rats” value with rats turned out to be 10 mg/kg. Moreover, the spontaneous ileum motility result with isolated mouse ileum was “lower impact on ileum motility”. For the same compound, in data set [1] (3 mg/kg p.o.), the “differences in PK profile between wild-type and M1R KO mice” value is given as “No significant differences”. In addition, the concentration at 3 h was 370 ± 50 ng/g in data set [1] (brain, 3 mg/kg, 3 mg/kg p.o., M1KO mice, read-out: Brain concentration); 350 ± 80 ng/g in data set [1] (brain, 3 mg/kg, 3 mg/kg p.o., wild-type mice, read-out: Brain concentration); 3260 ± 260 ng/mL in data set [1] (plasma, 3 mg/kg, 3 mg/kg p.o., M1KO mice, read-out: Plasma concentration); 3110 ± 490 ng/mL in data set [1] (plasma, 3 mg/kg, 3 mg/kg p.o., wild-type mice, read-out: Plasma concentration).
